Source: BindingDB's records for patent US10322118 (Dartmouth College, 2019)
pIC50: −log10 of the molar value.

The compounds below were run against T1, Bifunctional epoxide hydrolase 2 (Homo sapiens, UniProt P34913) (assay: Biochemical Characterization of Cif Inhibitors).
T1 sequence (P34913 whole entry): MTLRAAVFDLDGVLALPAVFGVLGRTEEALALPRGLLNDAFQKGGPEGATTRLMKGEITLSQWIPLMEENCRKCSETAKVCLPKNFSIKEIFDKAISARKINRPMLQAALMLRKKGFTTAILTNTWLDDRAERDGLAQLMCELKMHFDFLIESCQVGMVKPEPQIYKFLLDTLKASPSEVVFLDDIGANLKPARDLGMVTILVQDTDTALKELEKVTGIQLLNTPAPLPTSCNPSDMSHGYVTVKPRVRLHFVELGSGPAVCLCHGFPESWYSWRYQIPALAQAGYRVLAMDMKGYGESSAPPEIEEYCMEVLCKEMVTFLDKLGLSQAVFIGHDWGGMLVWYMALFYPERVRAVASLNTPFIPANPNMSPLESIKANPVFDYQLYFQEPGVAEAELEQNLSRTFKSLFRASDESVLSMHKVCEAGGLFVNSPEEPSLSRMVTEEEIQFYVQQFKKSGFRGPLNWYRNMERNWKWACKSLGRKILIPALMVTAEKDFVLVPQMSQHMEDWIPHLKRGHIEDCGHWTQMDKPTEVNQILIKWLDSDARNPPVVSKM

Going from CCC(=O)Oc1ccc(NC(=O)NC23CC4CC(CC(C4)C2)C3)cc1 [US10322118, Urea-Based Scaffold Entry 1] to CCCCCCCCCCCCS(C)(=O)=O [US10322118, Urea-Based Scaffold Entry 8], the pIC50 falls from 8.42 to 4.48 (3.94 log units).

Each compound was assayed against T2, Putative hydrolase (Pseudomonas aeruginosa (strain UCBPP-PA14), UniProt A0A0H2ZD27) (assay: Biochemical Characterization of Cif Inhibitors).
T2 sequence (A0A0H2ZD27 whole entry): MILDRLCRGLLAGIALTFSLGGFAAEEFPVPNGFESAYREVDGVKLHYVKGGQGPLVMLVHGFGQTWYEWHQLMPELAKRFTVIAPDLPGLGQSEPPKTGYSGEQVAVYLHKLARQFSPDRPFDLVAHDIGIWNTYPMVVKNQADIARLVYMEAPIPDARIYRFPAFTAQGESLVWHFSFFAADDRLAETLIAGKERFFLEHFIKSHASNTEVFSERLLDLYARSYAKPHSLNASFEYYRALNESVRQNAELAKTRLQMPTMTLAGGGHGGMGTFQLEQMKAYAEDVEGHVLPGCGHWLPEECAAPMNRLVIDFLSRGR

Compared with O=C(O)Cc1cc(I)c(Oc2cc(I)c(O)c(I)c2)c(I)c1 [US10322118, Entry 1], O=C(O)Cc1cc(I)c(Oc2ccc(O)cc2)c(I)c1 [US10322118, Entry 3] is 0.70 log units lower in pIC50: 4.70 for the first, 4.00 for the second. The first is the more potent here.

Going from Cc1cc(OCC(=O)O)cc(C)c1Cc1ccc(O)c(C(C)C)c1 [US10322118, Entry 7] to Cc1cc(C)cc(NC(=O)NC(=O)c2c(F)cccc2F)c1 [US10322118, Urea-Based Scaffold Entry 3], the pIC50 rises from less than 4.00 to 5.74.

Oc1ccc(Oc2ccccc2)cc1 [US10322118, Entry 9] and Nc1ccc(Oc2ccccc2)cc1 [US10322118, Entry 10] cannot be ordered by pIC50: less than 4.00 for the first, less than 4.00 for the second.

O=C(O)c1ccc(Oc2ccccc2)cc1 [US10322118, Entry 11] and CN(C(=O)NC(=O)c1c(F)cccc1F)c1ccc(Cl)cc1 [US10322118, Urea-Based Scaffold Entry 7] cannot be ordered by pIC50: less than 4.00 for the first, less than 4.00 for the second.

First: CCC(=O)Oc1ccc(NC(=O)NC23CC4CC(CC(C4)C2)C3)cc1 [US10322118, Urea-Based Scaffold Entry 1]
Second: O=C(NC(=O)c1c(F)cccc1F)Nc1cc(Cl)cc(Cl)c1 [US10322118, Urea-Based Scaffold Entry 4]
The pIC50 of the first is lower: less than 4.00 for the first, 5.82 for the second. The second is the more potent here.

Work on Cc1ccc(-c2cc(C(F)(F)F)nn2-c2ccc(S(N)(=O)=O)cc2)cc1 [US10322118, Urea-Based Scaffold Entry 9] yielded a pIC50 of 5.13.
